Source: paper PMC9784403 (Pharmaceuticals, 2022)
Several values for one entry are separate records, joined by “and”; a condition that tells them apart may be missing. Equal entries are not always repeated.

How the values were obtained:
[1] = biological target: T1, σ1R (Cavia porcellus, UniProt Q60492); test: σ1R competitive binding assay with [3H](+)-pentazocine; settings: [3H](+)-pentazocine 5 nM; Guinea pig brain membrane; 90 min at 37 °C
T1 construct: 100 μg of the brain membrane from male Guinea pigs; from tissue; host or cells: brain membranes of male guinea pigs
T1 sequence (Q60492 whole entry): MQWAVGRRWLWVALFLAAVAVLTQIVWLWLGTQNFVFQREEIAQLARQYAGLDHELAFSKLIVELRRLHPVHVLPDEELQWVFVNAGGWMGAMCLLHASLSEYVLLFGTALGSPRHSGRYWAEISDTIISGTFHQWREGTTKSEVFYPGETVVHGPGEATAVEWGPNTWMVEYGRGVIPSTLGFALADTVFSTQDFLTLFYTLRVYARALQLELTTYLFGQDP
Source text: For the σ1R assay, [^3H]Pentazocine (Perkin Elmer, Boston, MA, USA) was used as the radioligand to define the σ1R binding affinity of the test compounds, and the protocol followed the references published before with minor modification. […] Afterward, the filter paper collection, signal counting procedure, and data analysis were in line with the study of [^3H]DTG mentioned above.

[2] = biological target: T2, σ2R/TMEM97 (Rattus norvegicus, UniProt Q5U3Y7); test: Competitive receptor binding assay with [125I]RHM-4
T2 sequence (Q5U3Y7 1-176): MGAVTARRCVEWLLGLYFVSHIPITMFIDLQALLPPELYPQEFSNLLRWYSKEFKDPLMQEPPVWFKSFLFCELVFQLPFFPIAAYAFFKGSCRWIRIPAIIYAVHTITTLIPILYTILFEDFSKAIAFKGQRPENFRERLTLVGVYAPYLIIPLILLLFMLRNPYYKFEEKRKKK
Description: Briefly, the livers of female SD rats (Rockland, ME, USA) were dissected and homogenized using a Wheaton overhead stirrer (120 Vac Overhead Stirrer, Millville, NJ, USA) in 10 mL/g tissue weight of ice-cold 10mM Tris-HCl/0.32M Sucrose, pH 7.4. The crude homogenate was centrifuged for 10 min at 1000× g at 4 °C, the pellets were discarded, and the supernatant was further centrifuged at 31,000× g for 20 min at 4 °C. The supernatant was discarded, and the pellet was resuspended in 3 mL/g of ice-cold 10 mM Tris-HCl/0.32M sucrose, pH 7.4, and centrifuged again at 31,000× g for 20 min at 4 °C. After centrifugation, the pellets were resuspended in 1 mL of 50mM Tris-HCl, pH 7.4, and stored at −80 °C.
The inhibition constant [14] values of the tested ligands were determined using the Cheng and Prussoff equation [35], and the mean Ki values ± SEM were reported for at least three independent experiments.

[3] = biological target: T2, σ2R/TMEM97; test: Competitive receptor binding assay with [3H]DTG (σ1R masked with (+)-pentazocine)
Description: After incubation, the bound ligands were filtered using an M-24 Brandel filtration system (Brandel, Gaithersburg, MD, USA), collected on glass fiber paper (Whatman grade 934-AH, GE Healthcare Bio-Sciences, Pittsburgh, PA, USA), and counted using a MicroBeta2 Microplate counter 2450 (Perkin Elmer, Boston, MA, USA) or Wizard2 Automatic Gamma Counter 2470 (Perkin Elmer, Boston, MA, USA). The inhibition constant [14] values of the tested ligands were determined using the Cheng and Prussoff equation [35], and the mean Ki values ± SEM were reported for at least three independent experiments.

[4] = system: TMEM97-knocked out HeLa cells; set-up: method as in PMID 30443021; settings: cited from earlier work
[5] = biological target: T2, σ2R/TMEM97; type: binding; set-up: from tissue; host or cells: liver membranes of Sprague-Dawley rats
Description: All Kd and Bmax values were calculated via a nonlinear regression method using Prism, and the protein concentrations were determined using Lowry et al.’s method with BSA as the standard.

SMILES: COc1cc2c(cc1OC)CN(CCCCc1cc(-c3ccc(F)cc3)no1)CC2 [compound 4]
- Ki [1]: 800 ± 23 nM
- Ki [2]: 0.05 ± 0.01 nM
- Ki [3]: 0.6 ± 0.3 nM

SMILES: Cc1ccccc1NC(=N)Nc1ccccc1C [[^3H]DTG, reference compound]
- Kd ([4]; read-out: Kd of retained low-affinity binding site): ~300 nM

SMILES: COc1cccc2c1CCCC2CCCN1CCN(C2CCCCC2)CC1 (centres unmarked) [PB-28, reference compound]
- Ki [2]: 0.1 nM

SMILES: CCCCN1CCc2cc(OC)c(OC)cc2C1 [compound 2]
- Ki [1]: 38 ± 3.3 nM
- Ki [2]: 7 ± 3.9 nM
- Ki [3]: 10.4 ± 3.4 nM

SMILES: COc1cc2c(cc1OC)CN(CCCCNC(=O)c1cc([125I])cc(OC)c1OC)CC2 [[^125I]RHM-4]
- Kd ([5]; SD rat liver membranes, saturation binding, 100 nM (+)-pentazocine added for [3H]DTG, n = 3): 0.2 nM
- Bmax (binding capacity) ([5]; SD rat liver membranes, saturation binding, n = 3): 3894 ± 50 fmol/mg and 3894 ± 90 fmol/mg
- fold higher σ2R/TMEM97 affinity than that of [3H]DTG ([5]; ratio of binding affinities of the two radioligands): ~ 50 fold
- specific binding after knocking out TMEM97 [4]: completely eliminated

SMILES: COc1cc2c(cc1OC)CN(CCCCc1cc(-c3cc(C)ccc3OCCF)no1)CC2 [compound 3]
- Ki [1]: 715 ± 46 nM
- Ki [2]: 0.24 ± 0.02 nM
- Ki [3]: 2.3 ± 0.4 nM

SMILES: CCCCNC(=O)c1cc(C)ccc1OCCF [compound 1]
- Ki [1]: 1310 ± 87 nM
- Ki [2]: > 10000 nM
- Ki [3]: > 10000 nM

SMILES: COc1cc2c(cc1OC)CN(CCCCNC(=O)c1cc(I)cc(OC)c1OC)CC2 [RHM-4]
- Ki [2]: 0.2 ± 0.1 nM
- fold increase of σ2R/TMEM97 affinity by combination of fragments 1 and 2 ([2]; RHM-4 versus fragments 1 and 2): approximately 10 fold
- Ki [3]: 11.7 ± 2.4 nM

SMILES: COc1cc2c(cc1OC)CN(CCc1ccc(NC(=O)c3cccc4c(=O)c5cccc(OC)c5[nH]c34)cc1)CC2 [Elacridar, reference compound]
- Ki [2]: 0.9 ± 0.3 nM
- Ki [3]: 11.7 ± 0.7 nM

SMILES: C=CCN(C)CCCCCCOc1ccc(C(=O)c2ccc(Br)cc2)c(F)c1 [Ro 48-8071, reference compound]
- Ki [2]: 73 ± 32.7 nM
- Ki [3]: 370 ± 230 nM

SMILES: COc1ccc(C)cc1NC(=O)OC1CC2CCCC(C1)N2CCCCCCN (centres unmarked) [SV119, reference compound]
- Ki [2]: 35 ± 4 nM
- Ki [3]: 44.3 ± 7.3 nM

SMILES: Cc1ccc2c(c1)C1CN(C)CCC1N2C(=O)CSc1nnnn1-c1ccc(Cl)cc1 (centres unmarked) [AG-205, reference compound]
- Ki [2]: 571 ± 82.1 nM
- Ki [3]: 807 ± 238 nM
